Numbers after ± are expanded uncertainties.
Key:
[1] = molar enthalpy of vaporization or sublimation; settings: 298.15 K, Calvet Microcalorimeter
[2] = Crystal; DTA

Row | molar enthalpy ([1]; Liquid) | Normal melting temperature [2] | molar enthalpy ([1]; Crystal) | Structure (SMILES)
1 | 56.6 ± 2.4 kJ/mol | – | – | CC(C)(C)c1cccc(C(C)(C)C)n1 [2,6-di-tert-butylpyridine]
2 | 54.4 ± 2.6 kJ/mol | – | – | CC(C)(C)c1ccncc1 [4-(1,1-dimethylethyl)pyridine]
3 | – | 68 ± 2 °C | 78.3 ± 3.4 kJ/mol | CC(C)(C)c1cc(C(C)(C)C)nc(C(C)(C)C)c1 [pyridine, 2,4,6-tris(1,1-dimethylethyl)-]
